From ChEMBL document CHEMBL4840335, “Rational Design and Development of Novel CDK9 Inhibitors for the Treatment of Acute Myeloid Leukemia” (J Med Chem, 2021)
Each block holds one compound with its values, some of them ahead of it. Activity calls are given as the source filed them. The calls are words filed in the database; no cut-off is given here.

What was measured:
[1] = biological target: CDK9/cyclin T1 (Homo sapiens, UniProt P50750); test: Inhibition of CDK9/cyclin T1 (unknown origin) incubated for 2 hrs in presence of ATP by FRET based LANCE assay; type: protein-complex assay
[2] = biological target: Cyclin-dependent kinase 6 (Homo sapiens, UniProt Q00534); test: Inhibition of CDK6 (unknown origin)
[3] = biological target: Cyclin-dependent kinase 4 (Homo sapiens, UniProt P11802); test: Inhibition of CDK4 (unknown origin)
[4] = biological target: Cyclin-dependent kinase 2 (Homo sapiens, UniProt P24941); test: Inhibition of CDK2 (unknown origin)
[5] = biological target: Cyclin-dependent kinase 7 (Homo sapiens, UniProt P50613); test: Inhibition of CDK7 (unknown origin)
[6] = biological target: CDK9/cyclin T1 (Homo sapiens) (UniProt O60563+P50750); test: Inhibition of CDK9/cyclin T1 (unknown origin) at 10 uM incubated for 2 hrs in presence of ATP by FRET based LANCE assay relative to control; type: protein-complex assay
[7] = system: MV4-11; test: Induction of apoptosis in human MV4-11 cells assessed as activation of cleaved PARP at 5 to 50 nM measured after 24 hrs by Western blot analysis; type: functional, cell-based; conditions: dose 5-50 nM
[8] = system: MV4-11; test: Induction of apoptosis in human MV4-11 cells assessed as live cells at 50 nM measured after 24 hrs by annexinV-FITC/propidium iodide staining based flow cytometry (reference value: 95.14 %); type: functional
[9] = system: Raji; test: Antiproliferative activity against human Raji cells assessed as reduction in cell proliferation measured after 3 to 7 days by MTS assay; type: functional, cell-based
[10] = Antiproliferative activity against human MINO cells assessed as reduction in cell proliferation measured after 3 to 7 days by MTS assay; type: functional, cell-based
[11] = system: MV4-11; test: Induction of apoptosis in human MV4-11 cells assessed as early apoptotic cells at 50 nM measured after 24 hrs by annexinV-FITC/propidium iodide staining based flow cytometry (reference value: 0.79 %); type: functional
[12] = system: MM1.S; test: Antiproliferative activity against human MM1.S cells assessed as reduction in cell proliferation measured after 3 to 7 days by MTS assay; type: functional, cell-based
[13] = system: JeKo-1; test: Antiproliferative activity against human JeKo-1 cells assessed as reduction in cell proliferation measured after 3 to 7 days by MTS assay; type: functional, cell-based
[14] = system: Z-138; test: Antiproliferative activity against human Z138 cells assessed as reduction in cell proliferation measured after 3 to 7 days by MTS assay; type: functional, cell-based
[15] = system: OCI-Ly10; test: Antiproliferative activity against human OCILY10 cells assessed as reduction in cell proliferation measured after 3 to 7 days by MTS assay; type: functional, cell-based
[16] = system: MV4-11; test: Induction of apoptosis in human MV4-11 cells assessed as necrotic cells at 10 nM measured after 24 hrs by annexinV-FITC/propidium iodide staining based flow cytometry (reference value: 1.03 %); type: functional
[17] = system: MV4-11; test: Induction of apoptosis in human MV4-11 cells assessed as early apoptotic cells at 10 nM measured after 24 hrs by annexinV-FITC/propidium iodide staining based flow cytometry (reference value: 0.79 %); type: functional
[18] = system: HL-60; test: Antiproliferative activity against human HL-60 cells assessed as reduction in cell proliferation measured after 3 to 7 days by MTS assay; type: functional, cell-based
[19] = system: RPMI-8226; test: Antiproliferative activity against human RPMI-8226 cells assessed as reduction in cell proliferation measured after 3 to 7 days by MTS assay; type: functional, cell-based
[20] = system: CCRF-CEM; test: Antiproliferative activity against human CCRF-CEM cells assessed as reduction in cell proliferation measured after 3 to 7 days by MTS assay; type: functional, cell-based
[21] = system: MV4-11; test: Antiproliferative activity against human MV4-11 cells assessed as reduction in cell proliferation measured after 3 to 7 days by MTS assay; type: functional, cell-based
[22] = system: MV4-11; test: Induction of apoptosis in human MV4-11 cells assessed as necrotic cells at 50 nM measured after 24 hrs by annexinV-FITC/propidium iodide staining based flow cytometry (reference value: 1.03 %); type: functional
[23] = system: MV4-11; test: Induction of apoptosis in human MV4-11 cells assessed as late apoptotic cells at 50 nM measured after 24 hrs by annexinV-FITC/propidium iodide staining based flow cytometry (reference value: 3.04 %); type: functional
[24] = system: MV4-11; test: Induction of apoptosis in human MV4-11 cells assessed as activation of caspase-3 at 5 to 50 nM measured after 24 hrs by Western blot analysis; type: functional, cell-based; conditions: dose 5-50 nM
[25] = system: MV4-11; test: Induction of apoptosis in human MV4-11 cells assessed as late apoptotic cells at 10 nM measured after 24 hrs by annexinV-FITC/propidium iodide staining based flow cytometry (reference value: 3.04 %); type: functional
[26] = system: Kasumi 1; test: Antiproliferative activity against human Kasumi 1 cells assessed as reduction in cell proliferation measured after 3 to 7 days by MTS assay; type: functional, cell-based
[27] = system: MV4-11; test: Induction of apoptosis in human MV4-11 cells assessed as live cells at 10 nM measured after 24 hrs by annexinV-FITC/propidium iodide staining based flow cytometry (reference value: 95.14 %); type: functional
[28] = system: TMD8; test: Antiproliferative activity against human TMD8 cells assessed as reduction in cell proliferation measured after 3 to 7 days by MTS assay; type: functional, cell-based

Cyclin-dependent kinase 6, sequence (Q00534 whole entry): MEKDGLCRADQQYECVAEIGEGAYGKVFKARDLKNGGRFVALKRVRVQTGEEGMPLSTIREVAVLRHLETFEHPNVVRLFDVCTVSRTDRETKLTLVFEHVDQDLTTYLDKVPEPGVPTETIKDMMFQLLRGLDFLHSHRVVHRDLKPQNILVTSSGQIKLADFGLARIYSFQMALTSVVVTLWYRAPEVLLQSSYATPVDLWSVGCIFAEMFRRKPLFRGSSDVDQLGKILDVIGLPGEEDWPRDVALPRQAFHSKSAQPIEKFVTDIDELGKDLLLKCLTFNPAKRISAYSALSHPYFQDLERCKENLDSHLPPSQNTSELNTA
Cyclin-dependent kinase 4, sequence (P11802 whole entry): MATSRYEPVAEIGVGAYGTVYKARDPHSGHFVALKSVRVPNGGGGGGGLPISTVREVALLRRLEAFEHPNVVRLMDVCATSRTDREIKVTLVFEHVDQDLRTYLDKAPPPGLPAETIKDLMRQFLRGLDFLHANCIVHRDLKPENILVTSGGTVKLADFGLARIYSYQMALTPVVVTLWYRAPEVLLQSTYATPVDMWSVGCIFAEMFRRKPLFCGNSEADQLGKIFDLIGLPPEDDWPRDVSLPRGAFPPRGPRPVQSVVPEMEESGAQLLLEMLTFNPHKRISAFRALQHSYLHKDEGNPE
CDK9/cyclin T1, sequence (O60563 whole entry): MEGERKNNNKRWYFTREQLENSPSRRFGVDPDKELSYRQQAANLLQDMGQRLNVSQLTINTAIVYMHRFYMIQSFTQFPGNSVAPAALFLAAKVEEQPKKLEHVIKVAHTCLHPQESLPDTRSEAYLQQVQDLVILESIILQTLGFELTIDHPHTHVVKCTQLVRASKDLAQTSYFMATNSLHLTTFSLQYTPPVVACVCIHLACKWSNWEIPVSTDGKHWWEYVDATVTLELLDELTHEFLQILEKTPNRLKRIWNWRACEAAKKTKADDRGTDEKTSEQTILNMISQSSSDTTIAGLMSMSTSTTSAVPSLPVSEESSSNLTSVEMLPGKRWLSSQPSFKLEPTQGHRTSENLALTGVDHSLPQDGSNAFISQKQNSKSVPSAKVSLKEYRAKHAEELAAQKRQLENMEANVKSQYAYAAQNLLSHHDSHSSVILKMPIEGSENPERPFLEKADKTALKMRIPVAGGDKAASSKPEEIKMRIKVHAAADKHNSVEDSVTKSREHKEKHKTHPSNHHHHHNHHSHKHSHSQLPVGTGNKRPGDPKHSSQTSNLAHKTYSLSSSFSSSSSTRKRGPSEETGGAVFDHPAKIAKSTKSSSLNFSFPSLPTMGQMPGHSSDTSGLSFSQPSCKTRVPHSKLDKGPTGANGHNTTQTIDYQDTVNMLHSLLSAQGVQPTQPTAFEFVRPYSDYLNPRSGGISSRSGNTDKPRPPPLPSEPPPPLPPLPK
CDK9/cyclin T1, sequence (P50750 whole entry): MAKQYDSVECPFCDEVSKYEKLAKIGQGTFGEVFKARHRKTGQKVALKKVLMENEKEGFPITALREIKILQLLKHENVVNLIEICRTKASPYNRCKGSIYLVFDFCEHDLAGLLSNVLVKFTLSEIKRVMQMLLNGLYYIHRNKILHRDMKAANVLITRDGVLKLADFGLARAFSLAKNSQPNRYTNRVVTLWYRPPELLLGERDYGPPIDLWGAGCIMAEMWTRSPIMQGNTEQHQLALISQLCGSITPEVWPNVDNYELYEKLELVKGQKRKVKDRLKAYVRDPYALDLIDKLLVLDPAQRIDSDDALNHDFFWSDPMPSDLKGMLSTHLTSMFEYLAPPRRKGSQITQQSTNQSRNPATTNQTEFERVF
Cyclin-dependent kinase 7, sequence (P50613 whole entry): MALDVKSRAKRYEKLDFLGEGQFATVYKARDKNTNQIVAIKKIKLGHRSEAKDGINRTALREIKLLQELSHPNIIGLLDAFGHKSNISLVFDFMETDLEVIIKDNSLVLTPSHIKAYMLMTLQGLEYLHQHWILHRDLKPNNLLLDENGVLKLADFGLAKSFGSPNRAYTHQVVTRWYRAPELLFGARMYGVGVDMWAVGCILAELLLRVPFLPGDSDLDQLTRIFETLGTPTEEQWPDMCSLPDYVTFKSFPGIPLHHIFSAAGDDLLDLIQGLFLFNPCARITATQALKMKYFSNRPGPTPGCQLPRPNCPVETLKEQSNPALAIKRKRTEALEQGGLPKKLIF

Structure (SMILES): Cc1n[nH]c2ccc(-c3cncc(N[C@H](C)c4ccccc4)n3)cc12
IC50 [1]: 0.883 µM

Structure (SMILES): Cc1n[nH]c2ccc(-c3cncc(N[C@H](C)c4ccc(F)cc4)n3)cc12
IC50 [1]: 6.8 µM

Structure (SMILES): Cc1n[nH]c2ccc(-c3cncc(NC(C)CO)n3)cc12 (centres undefined)
IC50 [1]: 0.995 µM

Structure (SMILES): Cc1n[nH]c2ncc(-c3cncc(N[C@@H](CO)c4ccccc4)n3)cc12
IC50 [1]: 0.00657 µM

Structure (SMILES): Cc1n[nH]c2ccc(-c3cc(N[C@@H](CO)c4ccc(F)cc4)cnc3Cl)cc12
IC50 [1]: 0.0265 µM

Structure (SMILES): O=c1[nH]c2ccc(-c3cncc(NC(CO)c4ccccc4)n3)cc2[nH]1 (centres undefined)
inhibition [6]: 0.61%

Structure (SMILES): COC[C@H](C)N[C@H]1CC[C@H](Nc2cc(-c3cccc(NCC4(C#N)CCOCC4)n3)c(Cl)cn2)CC1
Activity [7]: Active | Activity [8]: 4.36% | IC50 [9]: 0.011 µM | IC50 [10]: 0.0052 µM | Activity [11]: 1.8% | IC50 [12]: 0.0063 µM | IC50 [13]: 0.01 µM | IC50 [14]: 0.0037 µM | IC50 [2]: > 1 µM | IC50 [15]: 0.0021 µM | Activity [16]: 3.23% | Activity [17]: 3.33% | IC50 [18]: 0.0057 µM | IC50 [3]: > 1 µM | IC50 [19]: 0.014 µM | IC50 [20]: 0.0033 µM | IC50 [21]: 0.0054 µM | Activity [22]: 16.67% | Activity [23]: 77.18% | Activity [24]: Active | IC50 [4]: > 1 µM | Activity [25]: 15.48% | IC50 [26]: 0.0068 µM | IC50 [5]: > 1 µM | Activity [27]: 77.97% | IC50 [28]: 0.015 µM | IC50 [1]: 0.00496 µM

Structure (SMILES): COc1ccc([C@H](CO)Nc2cncc(-c3ccc4[nH]nc(C)c4c3)n2)cc1
IC50 [1]: 0.774 µM

Structure (SMILES): Cc1n[nH]c2ncc(-c3cc(N[C@@H](CO)c4ccccc4)cnc3Cl)cc12
IC50 [2]: > 1 µM | IC50 [3]: > 1 µM | IC50 [4]: > 1 µM | IC50 [5]: > 1 µM | IC50 [1]: 0.0207 µM

Structure (SMILES): Cc1nc2c(F)cc(-c3cncc(NC(CO)c4ccccc4)n3)cc2n1C(C)C (centres undefined)
inhibition [6]: 13.8%

Structure (SMILES): OCC(Nc1cncc(-c2ccc3occc3c2)n1)c1ccccc1 (centres undefined)
IC50 [1]: 8.92 µM

Structure (SMILES): COc1cc(F)ccc1-c1cncc(NC(CO)c2ccccc2)n1 (centres undefined)
inhibition [6]: 12.4%

Structure (SMILES): OC[C@H](Nc1cncc(-c2ccc3[nH]ncc3c2)n1)c1ccccc1
IC50 [1]: 0.0423 µM

Structure (SMILES): O=C1Cc2cc(-c3cncc(NC(CO)c4ccccc4)n3)ccc2N1 (centres undefined)
inhibition [6]: 31.4%

Structure (SMILES): Cc1n[nH]c2ccc(-c3cncc(NC4CCCC(O)C4)n3)cc12 (centres undefined)
IC50 [2]: > 1 µM | IC50 [3]: > 1 µM | IC50 [4]: 0.0529 µM | IC50 [5]: 0.322 µM | IC50 [1]: 0.643 µM

Structure (SMILES): OCC(Nc1cncc(-c2ccc3nccnc3c2)n1)c1ccccc1 (centres undefined)
inhibition [6]: 2.63%

Continued, values first:

IC50 [2]: > 1 µM | IC50 [3]: > 1 µM | IC50 [4]: 0.147 µM | IC50 [5]: > 1 µM | IC50 [1]: 0.0142 µM
Structure (SMILES): Cc1n[nH]c2ccc(-c3cncc(NC(CO)c4ccccc4)n3)cc12 (racemic)

IC50 [1]: 0.0247 µM
Structure (SMILES): Cc1n[nH]c2ccc(-c3cncc(N[C@@H](CO)c4ccc(F)c(F)c4)n3)cc12

IC50 [2]: > 1 µM | IC50 [3]: > 1 µM | IC50 [4]: 0.0561 µM | IC50 [5]: > 1 µM | IC50 [1]: 0.0204 µM
Structure (SMILES): Cc1n[nH]c2ccc(-c3cncc(N[C@@H](CO)c4ccc(F)cc4)n3)cc12

IC50 [1]: 0.0273 µM
Structure (SMILES): Cc1n[nH]c2ccc(-c3cncc(NC(CO)c4ccc(F)c(F)c4)n3)cc12 (racemic)

IC50 [1]: 0.0756 µM
Structure (SMILES): Cc1n[nH]c2ccc(-c3cncc(N[C@@H](CO)c4ccc(Cl)cc4)n3)cc12

IC50 [2]: > 1 µM | IC50 [3]: > 1 µM | IC50 [4]: 0.0345 µM | IC50 [5]: 0.496 µM | IC50 [1]: 0.00915 µM
Structure (SMILES): Cc1n[nH]c2ccc(-c3cncc(N[C@@H](CO)c4cccc(F)c4)n3)cc12

IC50 [2]: > 1 µM | IC50 [3]: > 1 µM | IC50 [4]: 0.0674 µM | IC50 [5]: > 1 µM | IC50 [1]: 0.00604 µM
Structure (SMILES): Cc1n[nH]c2ccc(-c3cncc(N[C@@H](CO)c4ccccc4)n3)cc12

IC50 [1]: 0.153 µM
Structure (SMILES): Cc1cccc(C(CO)Nc2cncc(-c3ccc4[nH]nc(C)c4c3)n2)c1 (racemic)

IC50 [1]: 0.341 µM
Structure (SMILES): Cc1n[nH]c2ccc(-c3cncc(NC(CO)c4cccc(C(F)(F)F)c4)n3)cc12 (racemic)

IC50 [1]: 0.0503 µM
Structure (SMILES): Cc1n[nH]c2ccc(-c3cncc(NC(CO)c4ccc(F)cc4)n3)cc12 (racemic)

IC50 [1]: 0.0243 µM
Structure (SMILES): Cc1n[nH]c2ccc(-c3cncc(NC(CO)c4ccccc4F)n3)cc12 (racemic)

IC50 [1]: 0.633 µM
Structure (SMILES): Cc1n[nH]c2ccc(-c3cncc(NC(CO)c4cccc(OC(F)(F)F)c4)n3)cc12 (racemic)

IC50 [1]: 8.77 µM
Structure (SMILES): Cc1n[nH]c2ccc(-c3cncc(N[C@H](CO)c4ccccc4)n3)cc12
